Experiments:
[1] = biological target: recombinant BACE1 protein (Homo sapiens, UniProt P56817); assay: BACE1 biochemical FRET based assay; conditions: BACE1 0.04 μg/ml, 20 μM substrate, pH 5.0, 450 min; read-out: Biochemical FRET based assay pIC50 (converted)
Source text: (§1) This assay is a Fluorescence Resonance Energy Transfer Assay (FRET) based assay. The substrate for this assay is an APP derived 13 amino acids peptide that contains the ‘Swedish’ Lys-Met/Asn-Leu mutation of the amyloid precursor protein (APP) beta-secretase cleavage site. This substrate also contains two fluorophores: (7-methoxycoumarin-4-yl) acetic acid (Mca) is a fluorescent donor with excitation wavelength at 320 nm and emission at 405 nm and 2,4-Dinitrophenyl (Dnp) is a proprietary quencher acceptor. […] Upon cleavage by BACE1, the fluorophore Mca is separated from the quenching group Dnp, restoring the full fluorescence yield of the donor. The increase in fluorescence is linearly related to the rate of proteolysis.
Briefly in a 384-well format recombinant BACE1 protein in a final concentration of 0.04 μg/ml is incubated for 450 minutes at room temperature with 20 μM substrate in incubation buffer (50 mM Citrate buffer pH 5.0, 0.05% PEG) in the presence of compound or DMSO. Next the amount of proteolysis is directly measured by fluorescence measurement (excitation at 320 nm and emission at 405 nm) at different incubation times (0, 30, 60, 90, 120 and 450 min). For every experiment a time curve (every 30 min between 0 min and 120 min) is used to determine the time where we find the lowest basal signal of the high control. The signal at this time (Tx) is used to subtract from the signal at 450 min. Results are expressed in RFU, as difference between T450 and Tx.
(§2) A best-fit curve is fitted by a minimum sum of squares method to the plot of % Controlmin versus compound concentration. From this an IC50 value (inhibitory concentration causing 50% inhibition of activity) can be obtained. • LC=Median of the low control values • =Low control: Reaction without enzyme • HC=Median of the High control values • =High Control: Reaction with enzyme • % Effect=100−[(sample−LC)/(HC−LC)*100] • % Control=(sample/HC)*100 • % Controlmin=(sample−LC)/(HC−LC)*100

[2] = tested on: Abeta total produced and secreted by human neuroblastoma SKNBE2 cells expressing hAPP695; assay: Cellular αLisa assay in SKNBE2 cells, Abeta total; format: cell-based; conditions: 18 hours incubation, read-out: Cellular αLisa assay in SKNBE2 cells Abetatotal pIC50 (converted)
Method: In two αLisa assays the levels of Abeta total and Abeta 1-42 produced and secreted into the medium of human neuroblastoma SKNBE2 cells are quantified. The assay is based on the human neuroblastoma SKNBE2 expressing the wild type Amyloid Precursor Protein (hAPP695). The compounds are diluted and added to these cells, incubated for 18 hours and then measurements of Abeta 1-42 and Abeta total are taken. Abeta total and Abeta 1-42 are measured by sandwich αLisa. αLisa is a sandwich assay using biotinylated antibody AbN/25 attached to streptavidin coated beads and antibody Ab4G8 or cAb42/26 conjugated acceptor beads for the detection of Abeta total and Abeta 1-42 respectively. In the presence of Abeta total or Abeta 1-42, the beads come into close proximity. The excitation of the donor beads provokes the release of singlet oxygen molecules that trigger a cascade of energy transfer in the acceptor beads, resulting in light emission. Light emission is measured after 1 hour incubation (excitation at […] and emission at 615 nm).
as §2, with “cells preincubated” for “Reaction”, “compound, without biotinylated Ab in the αLisa” for “enzyme”, “cells preincubated without compound” for “Reaction with enzyme”

[3] = biological target: T1, recombinant BACE2 protein (Homo sapiens, UniProt Q9Y5Z0); assay: BACE2 biochemical FRET based assay; conditions: BACE2 0.4 μg/ml, 10 μM substrate, pH 5.0, 450 min; read-out: BACE2 Biochemical FRET based assay pIC50 (converted)
T1 sequence (Q9Y5Z0 63-518): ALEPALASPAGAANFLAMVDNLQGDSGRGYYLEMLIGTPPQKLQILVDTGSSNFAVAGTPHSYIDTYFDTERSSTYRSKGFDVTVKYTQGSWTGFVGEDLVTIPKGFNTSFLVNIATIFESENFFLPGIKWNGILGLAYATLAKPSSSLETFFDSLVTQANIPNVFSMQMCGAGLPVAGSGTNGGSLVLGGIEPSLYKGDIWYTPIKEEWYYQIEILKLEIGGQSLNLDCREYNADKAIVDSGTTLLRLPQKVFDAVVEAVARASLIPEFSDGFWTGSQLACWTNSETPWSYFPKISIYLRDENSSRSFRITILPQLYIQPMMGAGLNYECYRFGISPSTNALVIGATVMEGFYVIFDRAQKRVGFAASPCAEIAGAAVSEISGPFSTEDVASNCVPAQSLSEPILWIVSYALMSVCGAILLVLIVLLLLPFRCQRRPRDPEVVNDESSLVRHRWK
Source text: as §1, with “assay” for “assay is an APP derived 13 amino acids peptide that”, “the beta-secretase,” for “BACE1,”
Briefly in a 384-well format recombinant BACE2 protein in a final concentration of 0.4 μg/ml is incubated for 450 minutes at room temperature with 10 μM substrate in incubation buffer (50 mM Citrate buffer pH 5.0, 0.05% PEG, no DMSO) in the absence or presence of compound. Next the amount of proteolysis is directly measured by fluorescence measurement at T=0 and T=450 (excitation at 320 nm and emission at 405 nm). Results are expressed in RFU (Relative Fluorescence Units), as difference between T450 and T0.
as §2

Chain of recombinant BACE1 protein (P56817 46-501): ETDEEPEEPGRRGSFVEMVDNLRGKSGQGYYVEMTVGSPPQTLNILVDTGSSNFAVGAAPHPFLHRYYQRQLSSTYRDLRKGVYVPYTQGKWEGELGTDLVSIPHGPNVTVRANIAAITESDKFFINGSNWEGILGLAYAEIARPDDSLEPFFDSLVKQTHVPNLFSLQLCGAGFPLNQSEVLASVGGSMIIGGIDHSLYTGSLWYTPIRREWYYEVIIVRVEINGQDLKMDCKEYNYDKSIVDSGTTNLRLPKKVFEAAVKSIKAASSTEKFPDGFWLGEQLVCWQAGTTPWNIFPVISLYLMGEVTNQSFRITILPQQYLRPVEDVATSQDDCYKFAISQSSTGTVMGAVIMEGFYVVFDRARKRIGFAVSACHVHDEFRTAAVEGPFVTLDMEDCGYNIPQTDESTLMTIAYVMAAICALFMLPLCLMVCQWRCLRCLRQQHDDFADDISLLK

Row | SMILES | IC50 [1] [nM] | IC50 [2] [nM] | IC50 [3] [nM] | melting point [°C]
1 | Cn1cc2n(c1=O)C[C@@](C)(c1cc(NC(=O)c3ccc(C#N)cn3)ccc1F)N=C2N [Compound 1, N-{3-[(6R)-8-Amino-2,6-dimethyl-3-oxo-2,3,5,6-tetrahydroimidazo[1,5-a]pyrazin-6-yl]-4-fluorophenyl}-5-cyanopyridine-2-carboxamide] | 2.95 | 11.5 | 19.5 | –
2 | Cn1cc2n(c1=O)C[C@@](C)(c1cc(NC(=O)c3ccc(Cl)cn3)ccc1F)N=C2N [Compound 4, N-{3-[(6R)-8-amino-2,6-dimethyl-3-oxo-5H-imidazo[1,5-a]pyrazin-6-yl]-4-fluoro-phenyl}-5-chloro-pyridine-2-carboxamide] | 3.98 | 6.03 | 4.37 | 214.8
3 | Cc1nc(C(=O)Nc2ccc(F)c([C@]3(C)Cn4c(cn(C)c4=O)C(N)=N3)c2)co1 [Compound 3, N-{3-[(6R)-8-Amino-2,6-dimethyl-3-oxo-2,3,5,6-tetrahydroimidazo[1,5-a]pyrazin-6-yl]-4-fluorophenyl}-2-methyl-1,3-oxazole-4-carboxamide] | 9.55 | 52.5 | 6.61 | –
